From patent US9688689B2, “Compounds and compositions for inducing chondrogenesis” (Novartis AG, priority 2014, dated 2017) come the findings set out here.

The subject of this assay is Primary articular chondrocytes from normal bovine knees. Briefly: NO Release Assay in Bovine Chondrocytes (inhibition of cytokine induced NO release, Greiss reagent). In kind it is cell-based. Particulars: Bos taurus, Chondrocyte; 20 ng/ml TNFα and 10 ng/ml human oncostatin M, 48 hours; read-out: NO Inh. IC50. Here is the method:
The compounds of the present invention were evaluated in two functional assays to assess their chondrogenesis activities (Type II Collagen Expression) and chondrocyte protective activities (NO release assay).
The assay was described in Johnson, K., et al., (2012) Science 336, 717-721. Chondrocytes release NO during OA pathogenesis. This assay measures the inhibition of nitric oxide release by the treated compound (an indicator of chondro-protection) Primary articular chondrocytes from normal bovine knees (Animal Technologies, Tyler, Tex.) were isolated after dissection and collagenase digestion (Worthington Biochemical) of the tibial plateau and femoral condyle articular cartilage. The cells were initially plated at 80-90% confluency after isolation. Primary chondrocytes were cultured in high-glucose Dulbecco's modified Eagle's medium (DMEM) supplemented with 10% fetal bovine serum (FBS), 1% L-glutamine, 100 units/ml of penicillin, and 50 μg/ml of streptomycin (Life Technologies, Carlsbad, Calif.) and maintained at 37° C. in the presence of 5% CO2 for 7 days prior to initiation of each experiment. During the 7-day culture period, the cells adhered and established a chondrocyte-like appearance that was maintained throughout the experimental period. Functional studies on chondrocytes were performed in high-glucose DMEM with no FBS unless indicated otherwise.
After one week of culture, 8500 cells were plated per well in Greiner 384 well white clear bottom plates in growth media. Following 24 hours of culture, the media was removed and replaced with serum free DMEM containing 20 ng/ml TNFα and 10 ng/ml human oncostatin M (inflammatory mediators). […] 20 μl of the supernatant was mixed with 20 μl of the Greiss reagent (Promega # G2930) and quantitated at 540 nm. The Greiss reagent part A (1% Sulfanilamide in 5% phosphoric acid) was mixed at a 1:1 ration with Greiss reagent part B (0.1% N-1-napthylethylenediamine dihydrochloride in water) immediately prior to added to the culture supernatant.

One may read the IC50 as the concentration that inhibits the measured activity by half.

As to `O=C(Nc1ccc(Cl)c(Cl)c1)[C@@H]1[C@@H](c2ccncc2)[C@@H]2CC[C@H]1O2` [Compound 118, (1R,2R,3S,4S)—N-(3,4-dichlorophenyl)-3-(pyridin-4-yl)-7-oxabicyclo[2.2.1]heptane-2-carboxamide], the IC50 is more than 33 µM. For the molecule `O=C(Nc1ccc(-c2ccccc2)cc1)[C@H]1[C@@H](c2cccnc2)[C@H]2CC[C@@H]1O2` [Compound 121], the IC50 was more than 23 µM.

On to `Cn1ccc([C@@H]2[C@H](C(=O)Nc3ccc(-c4ccccc4)cc3)[C@@H]3CC[C@H]2O3)n1` [Compound 122], for which the IC50 was more than 33 µM.

For the molecule `O=C(Nc1ccc(-c2ccccc2Cl)c(F)c1)[C@H]1[C@@H](c2cccc(C(F)(F)F)n2)[C@H]2CC[C@@H]1O2` [Compound 123], the IC50 is more than 11 µM.

Consider `CCOC(=O)c1ccc(NC(=O)C2=C(c3cccc(C(F)(F)F)n3)[C@@H]3CCC2O3)cc1` [Compound 129], for which the IC50 is more than 33 µM. Consider `O=C(Nc1ccc(Cl)c(Cl)c1)[C@@H]1[C@H](c2ccncc2)[C@@H]2CC[C@H]1O2` [Compound 135], for which the IC50 is more than 33 µM.

On to `O=C(Nc1ccc(Cl)c(Cl)c1)C1=C(c2cccc(C(F)(F)F)n2)[C@@H]2CC[C@H]1O2` [Compound 136], for which the IC50 came out at 0.14 µM.

For `Cn1nc(C(F)(F)F)cc1C1=C(C(=O)Nc2ccc(-c3ccccc3F)c(F)c2)C2CC[C@@H]1O2` [Compound 137], the IC50 was determined as 8.2 µM.

In the case of `O=C(Nc1ccc(Cl)c(Cl)c1)[C@H]1C2CC[C@H](O2)[C@H]1c1cnccn1` [Compound 140], the IC50 is more than 33 µM. As to `Cn1nc(C(F)(F)F)cc1C1=C(C(=O)Nc2ccc(Cl)c(Cl)c2)[C@H]2CC[C@@H]1O2` [Compound 141], the IC50 was found to be 17 µM. Under `CCOC(=O)c1ccc(NC(=O)C2=C(c3cc(C(F)(F)F)nn3C)[C@@H]3CC[C@H]2O3)cc1` [Compound 142] stands more than 33 µM. Turning to `O=C(Nc1ccc(Cl)c(Cl)c1)C1=C(c2cnccn2)[C@@H]2CC[C@H]1O2` [Compound 144], the IC50 is more than 33 µM. Under `CCOC(=O)c1ccc(NC(=O)[C@H]2[C@H](c3ccc(OC)cn3)[C@@H]3CC[C@H]2O3)cc1` [Compound 151] stands more than 33 µM; under `O=C(Nc1ccc(Cl)c(Cl)c1)[C@@H]1[C@H](c2cccc(C(F)(F)F)n2)[C@@H]2CC[C@H]1O2` [Compound 155, (1R,2R,3R,4S)—N-(3,4-dichlorophenyl)-3-(6-(trifluoromethyl)pyridin-2-yl)-7-oxabicyclo[2.2.1]heptane-2-carboxamide], more than 33 µM. On to `O=C(Nc1cccc(C(F)(F)F)c1F)C1=C(c2cccc(C(F)(F)F)n2)C2CCC1O2` (centres unmarked) [Compound 157], for which the IC50 is 25 µM.

On to `O=C(Nc1ccc(-c2ccccc2)c(Cl)c1)C1=C(c2cccc(C(F)(F)F)n2)[C@@H]2CC[C@H]1O2` [Compound 160, (1R,4S)—N-(2-chloro-[1,1′-biphenyl]-4-yl)-3-(6-(trifluoromethyl)pyridin-2-yl)-7-oxabicyclo[2.2.1]hept-2-ene-2-carboxamide], for which the IC50 is 5.4 µM.

In the case of `O=C(Nc1ccc(Cl)c(Cl)c1)[C@H]1[C@H](c2ccncc2)[C@@H]2CC[C@H]1O2` [Compound 162], the IC50 was more than 33 µM. As to `O=C(Nc1ccc(-c2ccccc2F)c(F)c1)C1=C(c2cnccn2)[C@@H]2CC[C@H]1O2` [Compound 164], the IC50 is more than 33 µM. The figure for `Cc1ccnc([C@H]2[C@@H](C(=O)Nc3ccc(-c4ccccc4F)c(F)c3)[C@H]3CC[C@@H]2O3)c1` [Compound 166] is more than 33 µM; for `O=C(Nc1ccc(-c2ccccc2F)c(F)c1)C1=C(c2ccnc(N3CC[C@H](O)C3)c2)[C@@H]2CC[C@H]1O2` [Compound 167] it is more than 33 µM.
